In ChEMBL document CHEMBL1135866, “Photochemical preparation of a pyridone containing tetracycle: a Jak protein kinase inhibitor” (Bioorg Med Chem Lett, 2002):

Experiments:
[1] = target: T1, Inhibitor of nuclear factor kappa-B kinase subunit beta (Homo sapiens, UniProt O14920); test: Inhibition of I-kappa-B kinase 2
T1 sequence (O14920 whole entry): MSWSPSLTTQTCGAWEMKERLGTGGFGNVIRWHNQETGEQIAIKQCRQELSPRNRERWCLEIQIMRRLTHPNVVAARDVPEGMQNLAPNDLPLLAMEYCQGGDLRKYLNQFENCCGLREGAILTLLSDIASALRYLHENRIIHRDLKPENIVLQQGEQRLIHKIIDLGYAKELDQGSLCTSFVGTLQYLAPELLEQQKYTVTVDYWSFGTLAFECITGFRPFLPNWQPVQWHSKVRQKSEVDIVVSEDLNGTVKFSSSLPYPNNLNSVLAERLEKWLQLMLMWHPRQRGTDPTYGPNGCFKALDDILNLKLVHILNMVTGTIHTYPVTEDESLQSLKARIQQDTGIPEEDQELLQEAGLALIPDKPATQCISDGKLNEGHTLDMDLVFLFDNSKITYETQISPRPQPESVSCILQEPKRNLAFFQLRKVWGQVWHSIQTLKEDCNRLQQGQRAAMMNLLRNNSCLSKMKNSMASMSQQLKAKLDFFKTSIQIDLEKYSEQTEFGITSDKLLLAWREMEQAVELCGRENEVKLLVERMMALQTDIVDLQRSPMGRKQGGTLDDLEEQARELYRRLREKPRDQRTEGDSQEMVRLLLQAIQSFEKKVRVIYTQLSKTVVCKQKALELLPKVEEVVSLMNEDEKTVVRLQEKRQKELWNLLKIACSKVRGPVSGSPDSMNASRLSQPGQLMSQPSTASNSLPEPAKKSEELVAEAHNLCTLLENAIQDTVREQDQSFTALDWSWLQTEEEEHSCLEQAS

[2] = target: RAF proto-oncogene serine/threonine-protein kinase (Homo sapiens, UniProt P04049); test: Inhibition of protein kinase Raf
[3] = Inhibition of protein kinase cAMP-dependent protein kinase
[4] = target: Protein kinase C alpha type (Homo sapiens, UniProt P17252); test: Inhibition of protein kinase C alpha
[5] = target: Angiopoietin-1 receptor (Homo sapiens, UniProt Q02763); test: Inhibition of Tek kinase
[6] = target: Cyclin-dependent kinase 2 (Homo sapiens, UniProt P24941); test: Inhibition of cyclin dependent kinase 2
[7] = Inhibition of IL-4 induced JAK-1/JAK-3 associated murine T cell lymphoma cell proliferation; format: functional, cell-based; conditions: Mus musculus
[8] = target: Fibroblast growth factor receptor 2 (Homo sapiens, UniProt P21802); test: Inhibition of Fibroblast growth factor receptor 2
[9] = system: CTLL; test: Inhibition of PMA-induced murine T cell lymphoma cell proliferation; format: functional, cell-based; conditions: Mus musculus
[10] = target: Tyrosine-protein kinase HCK (Homo sapiens, UniProt P08631); test: Inhibition of protein kinase Hck
[11] = target: Vascular endothelial growth factor receptor 3 (Homo sapiens, UniProt P35916); test: Inhibition of Vascular endothelial growth factor receptor 3
[12] = Inhibition of IL-2 induced JAK-1/JAK-3-associated murine T cell lymphoma cell proliferation; format: functional, cell-based; conditions: Mus musculus

Sequence of Fibroblast growth factor receptor 2 (P21802 whole entry): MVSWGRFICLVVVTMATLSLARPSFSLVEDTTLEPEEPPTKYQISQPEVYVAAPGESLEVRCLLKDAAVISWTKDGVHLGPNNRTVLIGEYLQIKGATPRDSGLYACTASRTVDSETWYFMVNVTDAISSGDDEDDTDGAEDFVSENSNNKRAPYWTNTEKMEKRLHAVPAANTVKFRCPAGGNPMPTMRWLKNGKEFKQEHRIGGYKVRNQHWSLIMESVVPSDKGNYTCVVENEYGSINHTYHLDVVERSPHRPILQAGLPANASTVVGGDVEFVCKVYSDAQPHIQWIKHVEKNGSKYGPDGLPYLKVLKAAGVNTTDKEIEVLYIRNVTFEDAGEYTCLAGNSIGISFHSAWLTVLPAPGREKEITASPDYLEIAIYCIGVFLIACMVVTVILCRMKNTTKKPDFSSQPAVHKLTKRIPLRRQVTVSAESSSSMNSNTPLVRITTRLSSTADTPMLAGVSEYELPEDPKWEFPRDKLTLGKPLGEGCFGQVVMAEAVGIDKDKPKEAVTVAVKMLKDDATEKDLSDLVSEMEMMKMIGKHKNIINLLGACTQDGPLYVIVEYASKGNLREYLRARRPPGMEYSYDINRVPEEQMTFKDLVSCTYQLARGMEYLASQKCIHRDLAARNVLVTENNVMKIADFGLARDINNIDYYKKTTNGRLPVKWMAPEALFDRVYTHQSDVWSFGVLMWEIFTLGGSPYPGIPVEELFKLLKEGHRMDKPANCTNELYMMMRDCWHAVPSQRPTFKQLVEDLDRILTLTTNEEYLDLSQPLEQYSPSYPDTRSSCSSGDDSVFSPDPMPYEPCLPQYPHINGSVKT
Sequence of Tyrosine-protein kinase HCK (P08631 whole entry): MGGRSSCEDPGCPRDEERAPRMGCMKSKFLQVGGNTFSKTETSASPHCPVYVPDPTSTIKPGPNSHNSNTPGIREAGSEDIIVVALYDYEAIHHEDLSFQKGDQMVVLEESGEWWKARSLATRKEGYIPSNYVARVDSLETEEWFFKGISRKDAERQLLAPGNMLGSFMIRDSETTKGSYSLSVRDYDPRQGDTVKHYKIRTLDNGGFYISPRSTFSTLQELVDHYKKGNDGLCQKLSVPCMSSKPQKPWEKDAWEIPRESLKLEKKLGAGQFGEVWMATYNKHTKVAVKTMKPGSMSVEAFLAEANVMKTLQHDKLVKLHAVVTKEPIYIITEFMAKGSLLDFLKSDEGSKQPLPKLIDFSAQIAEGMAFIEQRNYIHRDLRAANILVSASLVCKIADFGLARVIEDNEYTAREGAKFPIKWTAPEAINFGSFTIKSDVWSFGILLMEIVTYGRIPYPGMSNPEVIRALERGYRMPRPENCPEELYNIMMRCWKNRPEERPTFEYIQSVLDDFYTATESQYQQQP
Sequence of Vascular endothelial growth factor receptor 3 (P35916 whole entry): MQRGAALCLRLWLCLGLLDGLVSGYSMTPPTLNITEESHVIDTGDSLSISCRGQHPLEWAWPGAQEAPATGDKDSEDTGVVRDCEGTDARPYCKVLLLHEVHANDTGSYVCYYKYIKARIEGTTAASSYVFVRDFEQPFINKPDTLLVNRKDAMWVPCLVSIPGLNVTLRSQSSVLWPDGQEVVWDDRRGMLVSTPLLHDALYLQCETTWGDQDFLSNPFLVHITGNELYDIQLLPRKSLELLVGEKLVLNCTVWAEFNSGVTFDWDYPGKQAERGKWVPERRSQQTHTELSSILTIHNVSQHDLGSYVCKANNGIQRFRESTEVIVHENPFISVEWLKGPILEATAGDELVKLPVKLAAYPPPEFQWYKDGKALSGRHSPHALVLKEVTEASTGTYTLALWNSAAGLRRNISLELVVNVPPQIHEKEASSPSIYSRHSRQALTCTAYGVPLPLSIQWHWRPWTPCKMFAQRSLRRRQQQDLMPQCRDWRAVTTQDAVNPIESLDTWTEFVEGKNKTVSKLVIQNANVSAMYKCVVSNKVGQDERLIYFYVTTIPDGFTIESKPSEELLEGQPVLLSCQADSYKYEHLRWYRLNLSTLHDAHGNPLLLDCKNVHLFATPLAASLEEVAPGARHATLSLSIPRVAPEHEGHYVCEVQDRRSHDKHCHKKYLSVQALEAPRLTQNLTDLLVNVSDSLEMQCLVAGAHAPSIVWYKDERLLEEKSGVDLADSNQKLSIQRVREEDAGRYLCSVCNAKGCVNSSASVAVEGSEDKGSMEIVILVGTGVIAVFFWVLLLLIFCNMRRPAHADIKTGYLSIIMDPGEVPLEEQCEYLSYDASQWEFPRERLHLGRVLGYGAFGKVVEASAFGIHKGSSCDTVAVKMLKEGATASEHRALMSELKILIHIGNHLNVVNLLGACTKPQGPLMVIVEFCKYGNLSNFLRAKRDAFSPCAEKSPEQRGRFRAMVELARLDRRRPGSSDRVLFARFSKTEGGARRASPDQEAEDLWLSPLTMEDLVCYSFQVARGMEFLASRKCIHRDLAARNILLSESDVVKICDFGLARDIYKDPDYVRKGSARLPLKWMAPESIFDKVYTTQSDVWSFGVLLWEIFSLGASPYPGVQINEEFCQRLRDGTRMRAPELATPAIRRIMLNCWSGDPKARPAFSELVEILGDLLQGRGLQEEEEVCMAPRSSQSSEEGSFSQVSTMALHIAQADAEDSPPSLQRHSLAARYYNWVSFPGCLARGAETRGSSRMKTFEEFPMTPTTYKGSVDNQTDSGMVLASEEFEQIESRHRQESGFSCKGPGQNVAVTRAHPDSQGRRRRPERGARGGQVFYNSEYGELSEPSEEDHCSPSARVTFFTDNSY
Sequence of RAF proto-oncogene serine/threonine-protein kinase (P04049 whole entry): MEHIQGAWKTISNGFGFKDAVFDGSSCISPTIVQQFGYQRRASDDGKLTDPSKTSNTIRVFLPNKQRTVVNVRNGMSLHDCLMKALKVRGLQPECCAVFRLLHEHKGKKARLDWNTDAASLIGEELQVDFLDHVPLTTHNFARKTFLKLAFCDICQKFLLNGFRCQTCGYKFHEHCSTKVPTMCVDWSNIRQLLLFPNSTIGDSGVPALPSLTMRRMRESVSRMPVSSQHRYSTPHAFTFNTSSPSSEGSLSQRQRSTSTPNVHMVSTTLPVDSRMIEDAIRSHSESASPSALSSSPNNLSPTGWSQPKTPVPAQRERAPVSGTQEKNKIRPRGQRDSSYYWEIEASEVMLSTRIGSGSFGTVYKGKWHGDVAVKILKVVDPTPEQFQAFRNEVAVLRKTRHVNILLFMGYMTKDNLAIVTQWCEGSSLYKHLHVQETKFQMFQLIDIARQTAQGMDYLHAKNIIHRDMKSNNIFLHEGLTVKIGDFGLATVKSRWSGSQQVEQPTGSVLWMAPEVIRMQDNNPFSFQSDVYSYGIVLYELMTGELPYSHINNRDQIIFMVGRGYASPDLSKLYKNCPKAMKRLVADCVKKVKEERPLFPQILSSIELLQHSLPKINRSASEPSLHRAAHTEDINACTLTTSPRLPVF

IC50 [1]: 300 nM | IC50 [2]: > 10000 nM | IC50 [3]: 7100 nM | IC50 [4]: 1200 nM | IC50 [5]: 24000 nM | IC50 [6]: 3300 nM | IC50 [8]: 940 nM | IC50 [10]: 7700 nM | IC50 [11]: 690 nM
Structure (SMILES): CC(C)(C)c1nc2c3ccc(F)cc3c3c(=O)[nH]ccc3c2[nH]1
IC50 [7]: 52 nM | IC50 [9]: 3100 nM | IC50 [12]: 100 nM
